The record followed here is patent US8076338B2, “Kinase modulators and methods of use” (Exelixis, Inc., priority 2004, dated 2011).

One assay addresses p70S6K (Homo sapiens, UniProt P23443). Nature of the assay: Luciferase-coupled chemiluminescence kinase assay (ATP consumption). The class given is biochemical. The settings on record: Table 1; class symbols per key. In short, it runs like this: (§1)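 Activity is read as ATP depletion: luciferase-luciferin reagent added after a 3 h ambient-temperature kinase reaction, with total ATP use limited to 25-60%. Before ATP addition, 2.5-5 nM kinase and compound were preincubated 30 min in Tris pH 7.5/MgCl2/TX-100/DTT buffer; […].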

For the next assay, the target named is AktK (Homo sapiens, UniProt P31749). The description is as above. The class given is biochemical. The settings on record: Table 1; class symbols per key; read-out: AKT-1 IC50. In short, it runs like this:
as §1

p70S6K, sequence (P23443 whole entry): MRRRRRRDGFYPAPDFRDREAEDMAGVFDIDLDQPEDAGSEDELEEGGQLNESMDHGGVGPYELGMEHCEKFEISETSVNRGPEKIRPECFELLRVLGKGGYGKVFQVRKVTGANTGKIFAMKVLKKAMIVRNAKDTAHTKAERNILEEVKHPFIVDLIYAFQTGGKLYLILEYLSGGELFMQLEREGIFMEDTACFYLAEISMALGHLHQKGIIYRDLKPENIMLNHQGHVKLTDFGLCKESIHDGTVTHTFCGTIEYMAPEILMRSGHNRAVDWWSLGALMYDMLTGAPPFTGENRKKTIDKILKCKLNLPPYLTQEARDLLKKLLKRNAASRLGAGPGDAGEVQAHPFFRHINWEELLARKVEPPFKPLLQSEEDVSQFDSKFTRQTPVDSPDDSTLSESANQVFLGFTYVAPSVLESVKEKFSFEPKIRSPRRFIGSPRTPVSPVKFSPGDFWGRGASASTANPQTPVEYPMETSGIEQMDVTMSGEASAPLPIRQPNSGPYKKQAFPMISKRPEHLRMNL
AktK, sequence (P31749 whole entry): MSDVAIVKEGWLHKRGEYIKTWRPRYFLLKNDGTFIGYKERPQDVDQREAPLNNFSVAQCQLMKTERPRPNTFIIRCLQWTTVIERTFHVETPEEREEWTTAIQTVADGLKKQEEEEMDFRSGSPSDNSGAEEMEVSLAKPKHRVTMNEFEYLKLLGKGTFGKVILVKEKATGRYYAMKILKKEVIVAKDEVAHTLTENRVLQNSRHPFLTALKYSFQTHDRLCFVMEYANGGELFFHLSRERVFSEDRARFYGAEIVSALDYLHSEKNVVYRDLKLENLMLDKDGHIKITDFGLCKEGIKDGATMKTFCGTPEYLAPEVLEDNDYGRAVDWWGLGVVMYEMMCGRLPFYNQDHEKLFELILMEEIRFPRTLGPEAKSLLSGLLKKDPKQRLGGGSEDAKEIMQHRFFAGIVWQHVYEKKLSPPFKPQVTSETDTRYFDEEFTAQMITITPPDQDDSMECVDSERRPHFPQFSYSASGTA

In the case of `Cc1cccc(C)c1N1CCN(c2ncnc3[nH]nc(Br)c23)CC1` [Entry 103, 3-bromo-4-[4-(2,6-dimethylphenyl)piperazin-1-yl]-1H-pyrazolo[3,4-d]pyrimidine], the results for the IC50 at p70S6K and on AktK were 100 to 1000 nM and at least 10000 nM, respectively.

`CCOc1ccc(N2CCN(c3ncnc4[nH]nc(Br)c34)CC2)cc1` [Entry 104, 3-bromo-4-{4-[4-(ethyloxy)phenyl]piperazin-1-yl}-1H-pyrazolo[3,4-d]pyrimidine]: the IC50 – broadly, the point on the concentration scale where inhibition reaches its midpoint – at p70S6K is 100 to 1000 nM; at AktK, at least 10000 nM.

As to `CCc1ccccc1N1CCN(c2ncnc3[nH]nc(Br)c23)CC1` [Entry 105, 3-bromo-4-[4-(2-ethylphenyl)piperazin-1-yl]-1H-pyrazolo[3,4-d]pyrimidine], the figures for the IC50 against p70S6K and on AktK were 100 to 1000 nM and at least 10000 nM, respectively.

For the compound `COc1ccc(N2CCN(c3ncnc4[nH]nc(Br)c34)CC2)c(OC)c1` [Entry 106, 4-{4-[2,4-bis(methyloxy)phenyl]piperazin-1-yl}-3-bromo-1H-pyrazolo[3,4-d]pyrimidine], the IC50 against p70S6K is 100 to 1000 nM; on AktK, at least 10000 nM.

Take `Brc1n[nH]c2ncnc(N3CCN(c4cnccn4)CC3)c12` [Entry 107, 3-bromo-4-(4-pyrazin-2-ylpiperazin-1-yl)-1H-pyrazolo[3,4-d]pyrimidine]: the figures for the IC50 on p70S6K and on AktK were 100 to 1000 nM and at least 10000 nM, respectively.

`Brc1n[nH]c2ncnc(N3CCN(c4ncccn4)CC3)c12` [Entry 108, 3-bromo-4-(4-pyrimidin-2-ylpiperazin-1-yl)-1H-pyrazolo[3,4-d]pyrimidine]: the half-inhibitory concentration (IC50) at p70S6K is 100 to 1000 nM; on AktK it was at least 10000 nM.

For `FC(F)(F)c1cc(N2CCN(c3ncnc4[nH]nc(Br)c34)CC2)c2ccccc2n1` [Entry 109, 4-[4-(3-bromo-1H-pyrazolo[3,4-d]pyrimidin-4-yl)piperazin-1-yl]-2-(trifluoromethyl)quinoline], the IC50 is under 100 nM on p70S6K and at least 10000 nM on AktK.

Consider `N#Cc1nccnc1N1CCN(c2ncnc3[nH]nc(Br)c23)CC1` [Entry 110, 3-[4-(3-bromo-1H-pyrazolo[3,4-d]pyrimidin-4-yl)piperazin-1-yl]pyrazine-2-carbonitrile], for which the IC50 at p70S6K is 100 to 1000 nM; on AktK, at least 10000 nM.

For `CCc1n[nH]c2ncnc(N3CCN(c4nc(C)cc(C)n4)CC3)c12` [Entry 111, 4-[4-(4,6-dimethylpyrimidin-2-yl)piperazin-1-yl]-3-ethyl-1H-pyrazolo[3,4-d]pyrimidine], the results for the IC50 against p70S6K and at AktK were 1000 to 10000 nM and at least 10000 nM, respectively.

For `CCOC(=O)c1cnc(C(F)(F)F)nc1N1CCN(c2ncnc3[nH]nc(CC)c23)CC1` [Entry 112, ethyl 4-[4-(3-ethyl-1H-pyrazolo[3,4-d]pyrimidin-4-yl)piperazin-1-yl]-2-(trifluoromethyl)pyrimidine-5-carboxylate], the half-maximal inhibitory concentration (IC50) at p70S6K was 1000 to 10000 nM; on AktK, at least 10000 nM.

Consider `CCc1n[nH]c2ncnc(N3CCN(c4cc(Cl)cc(OC)c4)CC3)c12` [Entry 113, 4-{4-[3-chloro-5-(methyloxy)phenyl]piperazin-1-yl}-3-ethyl-1H-pyrazolo[3,4-d]pyrimidine], for which the IC50 at p70S6K was under 100 nM; at AktK, at least 10000 nM.

Turning to `CCc1n[nH]c2ncnc(N3CCN(c4cc(F)cc(Br)c4Cl)CC3)c12` [Entry 114, 4-[4-(3-bromo-2-chloro-5-fluorophenyl)piperazin-1-yl]-3-ethyl-1H-pyrazolo[3,4-d]pyrimidine], the IC50 on p70S6K was 100 to 1000 nM; on AktK it was at least 10000 nM.

Turning to `CCc1n[nH]c2ncnc(N3CCN(c4ncccc4C(N)=O)CC3)c12` [Entry 115, 2-[4-(3-ethyl-1H-pyrazolo[3,4-d]pyrimidin-4-yl)piperazin-1-yl]pyridine-3-carboxamide], the IC50 was 100 to 1000 nM at p70S6K and at least 10000 nM at AktK.

`CCc1n[nH]c2ncnc(N3CCN(c4cc(C(F)(F)F)ccn4)CC3)c12` [Entry 116, 3-ethyl-4-{4-[4-(trifluoromethyl)pyridin-2-yl]piperazin-1-yl}-1H-pyrazolo[3,4-d]pyrimidine]: the IC50 against p70S6K is 100 to 1000 nM; at AktK, at least 10000 nM.

Consider `FC(F)(F)c1ccnc(N2CCN(c3ncnc4[nH]nc(Br)c34)CC2)c1` [Entry 117, 3-bromo-4-{4-[4-(trifluoromethyl)pyridin-2-yl]piperazin-1-yl}-1H-pyrazolo[3,4-d]pyrimidine], for which the half-maximal inhibitory concentration (IC50) at p70S6K is 100 to 1000 nM; on AktK it was at least 10000 nM.

Regarding `FC(F)(F)c1ccnc(N2CCN(c3ncnc4[nH]nc(Br)c34)CC2)n1` [Entry 118, 3-bromo-4-{4-[4-(trifluoromethyl)pyrimidin-2-yl]piperazin-1-yl}-1H-pyrazolo[3,4-d]pyrimidine], the IC50 is 100 to 1000 nM against p70S6K and at least 10000 nM on AktK.

On to `CN(C)CCOc1nccnc1N1CCN(c2ncnc3[nH]nc(Br)c23)CC1` [Entry 119, 2-({3-[4-(3-bromo-1H-pyrazolo[3,4-d]pyrimidin-4-yl)piperazin-1-yl]pyrazin-2-yl}oxy)-N,N-dimethylethanamine], for which the figures for the IC50 against p70S6K and at AktK were 100 to 1000 nM and 1000 to 10000 nM, respectively.

For the compound `Cc1cc(N2CCN(c3ncnc4[nH]nc(Br)c34)CC2)c2ccccc2n1` [Entry 120, 4-[4-(3-bromo-1H-pyrazolo[3,4-d]pyrimidin-4-yl)piperazin-1-yl]-2-methylquinoline], the values for the IC50 at p70S6K and on AktK were under 100 nM and at least 10000 nM, respectively.

`O=[N+]([O-])c1ccccc1N1CCN(c2ncnc3[nH]nc(Br)c23)CC1` [Entry 121, 3-bromo-4-[4-(2-nitrophenyl)piperazin-1-yl]-1H-pyrazolo[3,4-d]pyrimidine]: the values for the IC50 against p70S6K and at AktK were 100 to 1000 nM and at least 10000 nM, respectively.

On to `N#Cc1ccccc1N1CCN(c2ncnc3[nH]nc(Br)c23)CC1` [Entry 122, 2-[4-(3-bromo-1H-pyrazolo[3,4-d]pyrimidin-4-yl)piperazin-1-yl]benzonitrile], for which the IC50 was 100 to 1000 nM on p70S6K and at least 10000 nM at AktK.

As for `N#Cc1ccc(N2CCN(c3ncnc4[nH]nc(Br)c34)CC2)cc1` [Entry 123, 4-[4-(3-bromo-1H-pyrazolo[3,4-d]pyrimidin-4-yl)piperazin-1-yl]benzonitrile], the IC50 at p70S6K was under 100 nM; on AktK it was at least 10000 nM.

For the compound `FC(F)(F)c1ccc(N2CCN(c3ncnc4[nH]nc(Br)c34)CC2)cc1` [Entry 124, 3-bromo-4-{4-[4-(trifluoromethyl)phenyl]piperazin-1-yl}-1H-pyrazolo[3,4-d]pyrimidine], the IC50 against p70S6K was 100 to 1000 nM; at AktK, at least 10000 nM.

For `Brc1n[nH]c2ncnc(N3CCN(c4ccc(OCc5ccccc5)cc4)CC3)c12` [Entry 125, 3-bromo-4-(4-{4-[(phenylmethyl)oxy]phenyl}piperazin-1-yl)-1H-pyrazolo[3,4-d]pyrimidine], the IC50 against p70S6K was 100 to 1000 nM; on AktK it was at least 10000 nM.

As to `CCc1n[nH]c2ncnc(N3CCN(c4cc(Cl)cc(OC)c4C)CC3)c12` [Entry 126, 4-{4-[5-chloro-2-methyl-3-(methyloxy)phenyl]piperazin-1-yl}-3-ethyl-1H-pyrazolo[3,4-d]pyrimidine], the values for the IC50 at p70S6K and at AktK were under 100 nM and at least 10000 nM, respectively.

As for `N#Cc1cccnc1N1CCN(c2ncnc3[nH]nc(Br)c23)CC1` [Entry 127, 2-[4-(3-bromo-1H-pyrazolo[3,4-d]pyrimidin-4-yl)piperazin-1-yl]pyridine-3-carbonitrile], the IC50 against p70S6K is 100 to 1000 nM; at AktK, at least 10000 nM.
